Assay results: article PMC7321382, “Synthesis and Antibacterial Analysis of Analogues of the Marine Alkaloid Pseudoceratidine” (Molecules, 2020)
Converted amounts (≈) assume the structure as drawn.

Assays:
S. aureus 16207 = test: Antibacterial MIC, broth microdilution, S. aureus; format: cell-based, Staphylococcus aureus; details: Staphylococcus aureus, 16207; Gram-positive; 24 h incubation; highest concentration tested 32 µM
Procedure: (§1) The MIC was determined using the broth microdilution method. Mueller Hinton (MH) broth base was prepared in milli-Q water, then autoclaved at 120 °C for 1 h before allowing it to cool to room temperature. A single colony of each bacterial strain (E. coli DH5α and S. aureus 16207) was inoculated in MHB and incubated at 37 °C overnight. Overnight cultures were adjusted to 10^6 CFU/mL in MHB according to the McFarland Standard,100 μL of which was further diluted to a total of 10 mL in the media. The stock solutions of the compounds were prepared at 12.8 mM in purified DMSO. The stock solutions were further diluted in milli-Q water to 64 μM in 0.5% DMSO for testing against S. aureus, and 256 μM in 2% DMSO for testing against E. coli. Compounds that were not soluble in these solvent mixtures were further diluted in half to get clear solutions for the bioassay. DMSO is known to have weak antibacterial activity. To exclude the antibacterial effect of DMSO from the results, a solution of 2% DMSO in milli-Q water was used as an additional control in the experiments. The compounds and three controls (the natural product pseudoceratidine 1 for both strains, streptomycin for S. aureus, and polymyxin B for E. coli) then underwent a dilution series. The assay was performed by adding 50 μL of each compound solution at the different concentrations and 50 μL of the diluted bacterial culture to the different wells of a 96-well microtiter plate. The experiments were performed at least thrice and in triplicates. MIC after 24 h of incubation was determined by both visual inspection and absorbance at 600 nm using an EnSpire Multimode plate reader.

E. coli DH5α = test: Antibacterial MIC, broth microdilution, E. coli; format: cell-based, Escherichia coli; details: Gram-negative, 24 h incubation, highest concentration tested 128 µM, † lower starting concentration due to insolubility; for MIC: Escherichia coli
Procedure: as §1

NCCNCCCNC(=O)c1cc(Br)c[nH]1 [Compound 22]
MIC (S. aureus 16207): > 32 µM | MIC (E. coli DH5α): > 128 µM

[H]/N=C(/N)N[C@H]1[C@H](O)[C@@H](O)[C@H](O[C@@H]2O[C@@H](C)[C@](O)(C=O)[C@H]2O[C@@H]2O[C@@H](CO)[C@H](O)[C@@H](O)[C@@H]2NC)[C@@H](N/C(N)=N\[H])[C@@H]1O [Streptomycin, streptomycin, reference compound]
MIC (S. aureus 16207): 0.625 to 1.25 µM (≈ 0.363 to 0.727 µg/mL)

O=C(NCCCCNC(=O)c1cc(I)c[nH]1)c1cc(I)c[nH]1 [Compound 12f]
MIC (S. aureus 16207): > 32 µM | MIC (E. coli DH5α): > 64 µM

O=C(NCCNCCNC(=O)c1cc(Cl)c[nH]1)c1cc(Cl)c[nH]1 [Compound 13b]
melting point: 199 to 201 °C | MIC (S. aureus 16207): > 32 µM | MIC (E. coli DH5α): > 128 µM

NCCCNCCNC(=O)c1cc(Br)c(Br)[nH]1 [Compound 23]
MIC (S. aureus 16207): > 32 µM | MIC (E. coli DH5α): > 128 µM

O=C(NCCCCNCCCNC(=O)c1cc(I)c[nH]1)c1cc(I)c[nH]1 [Compound 17f]
melting point: 89 to 90 °C | MIC (S. aureus 16207): > 32 µM | MIC (E. coli DH5α): > 128 µM

O=C(NCCCCNCCCNC(=O)c1cc(Br)c[nH]1)c1cc(Br)c[nH]1 [Compound 17d]
MIC (S. aureus 16207): > 32 µM | MIC (E. coli DH5α): > 128 µM

CN(C)CCCNC(=O)c1cc(Cl)c(Cl)[nH]1 [Compound 27c]
MIC (S. aureus 16207): > 32 µM | MIC (E. coli DH5α): > 128 µM

O=C(NCCNCCNC(=O)c1cc(Br)c[nH]1)c1cc(Br)c[nH]1 [Compound 13d]
melting point: 201 to 203 °C | MIC (S. aureus 16207): > 32 µM | MIC (E. coli DH5α): > 128 µM

O=C(NCCNCCNC(=O)c1cc(Cl)c(Cl)[nH]1)c1cc(Cl)c(Cl)[nH]1 [Compound 13c]
melting point: > 230 °C | MIC (S. aureus 16207): > 32 µM | MIC (E. coli DH5α): > 64 µM

O=C(NCCCNCCNC(=O)c1cc(I)c[nH]1)c1cc(I)c[nH]1 [Compound 16f]
melting point: 178 to 180 °C | MIC (S. aureus 16207): > 32 µM | MIC (E. coli DH5α): > 128 µM

CC(C)(C)OC(=O)NCCCNC(=O)c1cc(Br)c[nH]1 [Compound 28d]
MIC (S. aureus 16207): > 32 µM | MIC (E. coli DH5α): > 128 µM

O=C(NCCCCNC(=O)c1ccc[nH]1)c1ccc[nH]1 [Compound 12a]
melting point: 215 to 216 °C | MIC (S. aureus 16207): > 32 µM | MIC (E. coli DH5α): > 128 µM

O=C(NCCCCNCCCNC(=O)c1cc(Cl)c(Cl)[nH]1)c1cc(Cl)c(Cl)[nH]1 [Compound 17c]
MIC (S. aureus 16207): > 32 µM | MIC (E. coli DH5α): 128 to 256 µM (≈ 60.1 to 120 µg/mL)

polymyxin B [reference compound]
MIC E. Coli (E. coli DH5α): 0.3 to 0.6 µM

O=C(NCCCNCCCNC(=O)c1cc(I)c[nH]1)c1cc(I)c[nH]1 [Compound 14f]
melting point: 93 to 95 °C | MIC (S. aureus 16207): > 32 µM | MIC (E. coli DH5α): > 128 µM

O=C(NCCCCCCNCCCCCCNC(=O)c1cc(Br)c[nH]1)c1cc(Br)c[nH]1 [Compound 15d]
melting point: 178 to 180 °C | MIC (S. aureus 16207): > 32 µM | MIC (E. coli DH5α): > 64 µM

O=C(NCCCCCCNCCCCCCNC(=O)c1cc(Cl)c[nH]1)c1cc(Cl)c[nH]1 [Compound 15b]
melting point: 106 to 108 °C | MIC (S. aureus 16207): > 32 µM | MIC (E. coli DH5α): > 128 µM

O=C(NCCCCCCNCCCCCCNC(=O)c1ccc[nH]1)c1ccc[nH]1 [Compound 15a]
melting point: 129 to 131 °C | MIC (S. aureus 16207): > 32 µM | MIC (E. coli DH5α): > 128 µM

O=C(NCCNCCNC(=O)c1cc(I)c[nH]1)c1cc(I)c[nH]1 [Compound 13f]
melting point: 193 to 195 °C | MIC (S. aureus 16207): > 32 µM | MIC (E. coli DH5α): > 64 µM

NCCCNCCNC(=O)c1cc(Br)c[nH]1 [Compound 21]
MIC (S. aureus 16207): > 32 µM | MIC (E. coli DH5α): > 128 µM

O=C(NCCCNCCCCNCCCNC(=O)c1ccc[nH]1)c1ccc[nH]1 [Compound 19a]
melting point: 175 to 176 °C | MIC (S. aureus 16207): > 32 µM | MIC (E. coli DH5α): > 128 µM

CC(C)(C)OC(=O)NCCCNC(=O)c1cc(I)c[nH]1 [Compound 28f]
melting point: 128 to 130 °C | MIC (S. aureus 16207): > 32 µM | MIC (E. coli DH5α): > 128 µM

NCCNCCNC(=O)c1ccc[nH]1 [Compound 20]
MIC (S. aureus 16207): > 32 µM | MIC (E. coli DH5α): > 128 µM

O=C(NCCCNCCCNC(=O)c1cc(Cl)c[nH]1)c1cc(Cl)c[nH]1 [Compound 14b]
melting point: 78 to 80 °C | MIC (S. aureus 16207): > 32 µM | MIC (E. coli DH5α): > 128 µM

CN(C)CCCNC(=O)c1ccc[nH]1 [Compound 27a]
MIC (S. aureus 16207): > 32 µM | MIC (E. coli DH5α): > 128 µM

CN(C)CCCNC(=O)c1cc(I)c[nH]1 [Compound 27f]
melting point: 169 to 171 °C | MIC (S. aureus 16207): > 32 µM | MIC (E. coli DH5α): > 128 µM

O=C(NCCCNCCCCNCCCNC(=O)c1cc(Cl)c[nH]1)c1cc(Cl)c[nH]1 [Compound 19b]
melting point: 194 to 195 °C | MIC (S. aureus 16207): > 32 µM | MIC (E. coli DH5α): > 128 µM

O=C(NCCCCNC(=O)c1cc(Cl)c(Cl)[nH]1)c1cc(Cl)c(Cl)[nH]1 [Compound 12c]
melting point: > 230 °C | MIC (S. aureus 16207): > 32 µM | MIC (E. coli DH5α): > 64 µM

O=C(NCCNCCNC(=O)c1cc(Br)c(Br)[nH]1)c1cc(Br)c(Br)[nH]1 [Compound 13e]
melting point: > 230 °C | MIC (S. aureus 16207): > 32 µM | MIC (E. coli DH5α): > 64 µM

O=C(NCCCCNCCCNC(=O)c1cc(Cl)c[nH]1)c1cc(Cl)c[nH]1 [Compound 17b]
melting point: 80 to 81 °C | MIC (S. aureus 16207): > 32 µM | MIC (E. coli DH5α): > 128 µM

O=C(NCCCNCCCCNCCCNC(=O)c1cc(Br)c[nH]1)c1cc(Br)c[nH]1 [Compound 19d]
melting point: 173 to 175 °C | MIC (S. aureus 16207): 16 to 32 µM (≈ 8.74 to 17.5 µg/mL) | MIC (E. coli DH5α): 64 to 128 µM (≈ 35 to 69.9 µg/mL)

CN(C)CCCNC(=O)c1cc(Br)c(Br)[nH]1 [Compound 27e]
MIC (S. aureus 16207): > 32 µM | MIC (E. coli DH5α): > 128 µM

O=C(NCCCNCCNC(=O)c1ccc[nH]1)c1ccc[nH]1 [Compound 16a]
melting point: 69 to 71 °C | MIC (S. aureus 16207): > 32 µM | MIC (E. coli DH5α): > 128 µM

O=C(NCCCCNC(=O)c1cc(Br)c[nH]1)c1cc(Br)c[nH]1 [Compound 12d]
melting point: > 230 °C | MIC (S. aureus 16207): > 32 µM | MIC (E. coli DH5α): > 64 µM

O=C(NCCCNCCCNC(=O)c1cc(Br)c[nH]1)c1cc(Br)c[nH]1 [Compound 14d]
melting point: 73 to 75 °C | MIC (S. aureus 16207): > 32 µM | MIC (E. coli DH5α): > 128 µM

O=C(NCCCCNC(=O)c1cc(Br)c(Br)[nH]1)c1cc(Br)c(Br)[nH]1 [Compound 12e]
melting point: > 230 °C | MIC (S. aureus 16207): > 32 µM | MIC (E. coli DH5α): > 64 µM

CN(C)CCCNC(=O)c1cc(Cl)c[nH]1 [Compound 27b]
MIC (S. aureus 16207): > 32 µM | MIC (E. coli DH5α): > 128 µM

O=C(NCCNCCNC(=O)c1ccc[nH]1)c1ccc[nH]1 [Compound 13a]
melting point: 191 to 193 °C | MIC (S. aureus 16207): > 32 µM | MIC (E. coli DH5α): > 128 µM

O=C(NCCCNCCCNCCCNC(=O)c1ccc[nH]1)c1ccc[nH]1 [Compound 18a]
MIC (S. aureus 16207): > 32 µM | MIC (E. coli DH5α): > 128 µM

O=C(NCCCCNCCCNC(=O)c1ccc[nH]1)c1ccc[nH]1 [Compound 17a]
MIC (S. aureus 16207): > 32 µM | MIC (E. coli DH5α): > 128 µM

CN(C)CCCNC(=O)c1cc(Br)c[nH]1 [Compound 27d]
MIC (S. aureus 16207): > 32 µM | MIC (E. coli DH5α): > 128 µM

NCCNCCCNC(=O)c1cc(Br)c(Br)[nH]1 [Compound 24]
MIC (S. aureus 16207): > 32 µM | MIC (E. coli DH5α): > 128 µM

CC(C)(C)OC(=O)NCCCNC(=O)c1cc(Br)c(Br)[nH]1 [Compound 28e]
MIC (S. aureus 16207): > 32 µM | MIC (E. coli DH5α): > 128 µM

O=C(NCCCNCCCNCCCNC(=O)c1cc(Br)c[nH]1)c1cc(Br)c[nH]1 [Compound 18d]
MIC (S. aureus 16207): 16 to 32 µM (≈ 8.52 to 17 µg/mL) | MIC (E. coli DH5α): 64 to 128 µM (≈ 34.1 to 68.1 µg/mL)

O=C(NCCCNCCCNCCCNC(=O)c1cc(Cl)c[nH]1)c1cc(Cl)c[nH]1 [Compound 18b]
MIC (S. aureus 16207): > 32 µM | MIC (E. coli DH5α): 64 to 128 µM (≈ 28.4 to 56.8 µg/mL)

CC(C)(C)OC(=O)NCCCNC(=O)c1cc(Cl)c[nH]1 [Compound 28b]
MIC (S. aureus 16207): > 32 µM | MIC (E. coli DH5α): > 128 µM
